Assay results published in patent US20100204210A1, “METHOD FOR TREATING PULMONARY DISEASES USING RHO KINASE INHIBITOR COMPOUNDS” (priority 2008, published 2010).
Read-outs that look alike come from different tables or passages of the source.

Key:
rat tracheal rings [1] = assay: Relaxation of carbachol-precontracted rat tracheal rings with reduced responsiveness to beta adrenergic receptor agonist; conditions: for response of carbachol-precontracted trachea to beta adrenergic receptor agonist: 300 nM carbachol, 1 μM isoproterenol, 1 μM formoterol or 30 μM albuterol, FIG. 1A-C; for relaxation by second addition of beta agonist after the response to 3 μM formoterol has faded: second dose 3 μM formoterol or 100 μM albuterol
Procedure: Trachea were excised from male Sprague-Dawley rats, cleaned of connective tissue and cut into cylindrical segments of 2-3 mm length. Two stainless steel wires were guided through the lumen of the tracheal ring. One wire was fixed in the tissue bath and the other was connected to a force transducer via surgical silk. Preparations were mounted in 5 ml water-jacketed organ baths (Radnoti Glass Technology) filled with Krebs buffer (95 mM NaCl, 5 mM KCl, 2.6 mM CaCl2, 1.2 mM MgSO4, 24.9 mM NaHCO3, 1.2 mM KH2PO4, 10 mM glucose) maintained at 37° C. and gassed with 95% O2 and 5% CO2. Indomethacin (1 μM), a cyclooxygenase inhibitor, was added to the Krebs buffer and was present throughout the experiments. Contractile tensions were measured using an isometric force transducer (Grass Instruments) and signals were analyzed using specialized software (Chart v5.5, ADInstruments). The preparations were allowed to equilibrate at a resting tension of 0.3 to 0.5 gm prior to two challenges with 60 mM KCl to assess tissue viability. After washing, tissues were treated with 300 nM carbachol for 10 to 15 minutes to induce a contractile response. Tissues were then treated with isoproterenol, formoterol, or albuterol to induce a relaxant response. […] After 10 minutes of formoterol treatment, these tissues were treated with a second dose of formoterol or with albuterol. After an additional 10 minutes, tissues were treated with a Rho kinase inhibitor. Basal tension was subtracted from all values and data were reported as a percentage of the maximal carbachol-induced contraction. Four parameters were analyzed for quantitation of efficacies: i) the maximal relaxation induced by initial formoterol treatment, ii) the fade of the response to the initial formoterol treatment, iii) the maximal relaxation induced by the second addition of a beta adrenergic receptor agonist, and iv) the maximal relaxation induced by Rho kinase inhibitor.

rat tracheal rings [2] = assay: Relaxation of carbachol-precontracted rat tracheal rings pretreated with vehicle or pro-inflammatory cytokines IL-1β and TNF-α; conditions: 300 nM carbachol, read-out: IC50 for relaxant response
Procedure: Male Sprague-Dawley rats weighing 301-325 gm were sacrificed by asphyxiation in a CO2 chamber. Trachea were excised, cleaned of connective tissue and cut into cylindrical segments of 2-3 mm length. Tissues were treated for 18 hours at 37° C. in F12 media with penicillin-streptomycin and 0.1% BSA alone or with 10 ng/ml IL-1β and 100 ng/ml TNF-α. IL-1β and TNF-α are pro-inflammatory cytokines. Tissues were then washed free of cytokines with Krebs buffer. Contractile tensions were measured using an isometric force transducer (Grass Instruments) as described for Example 1 and signals were analyzed using specialized software (Chart v5.5, ADInstruments). Tissues were treated with 300 nM carbachol for 10 to 15 minutes to induce a contractile response. Beta adrenergic receptor agonist compounds, isoproterenol or albuterol, were added cumulatively to the bath every 2 to 3 minutes and reductions in tension were recorded. Alternatively, Rho kinase inhibitor compound was added cumulatively to the bath every 30 minutes and reductions in tension were recorded. Basal tension was subtracted from all values and data were reported as a percentage of the maximal carbachol-induced contraction. Data were fit to the Hill equation using GraphPad Prism v5 software.

[3] = Pulmonary function test (FEV1 after methacholine provocation) in human patients treated with formoterol; format: in vivo; conditions: formoterol group compared to the placebo group, after 2 weeks
Description: Patients with asthma or COPD are randomized to albuterol or Rho kinase inhibitor compound test groups. After 2-weeks of run-in period, subjects are given a methacholine provocation test (MPT) to induce bronchoconstriction followed by treatment with increasing doses of albuterol or with increasing doses of Rho kinase inhibitor compound to induce bronchorelaxation to establish the subject's baseline response to albuterol or Rho kinase inhibitor compound. Subjects from both test groups are then randomized to inhaled formoterol twice daily or placebo for 2 weeks. At the end of the trial period, the albuterol test group subjects are again administered a methacholine provocation test to induce bronchoconstriction followed by treatment with increasing doses of albuterol. Similarly, the Rho kinase inhibitor compound test group subjects are again administered a methacholine provocation test to induce bronchoconstriction followed by treatment with increasing doses of Rho kinase inhibitor compound to induce bronchorelaxation. The change in FEV1 after albuterol inhalation or administration of Rho kinase inhibitor compound is measured.

[4] = cytokine-pretreated tissue (10 ng/ml IL-1β and 100 ng/ml TNF-α, 18 hours)

SMILES | response of carbachol-precontracted trachea to beta adrenergic receptor agonist (rat tracheal rings [1]) | relaxation by second addition of beta agonist after the response to 3 μM formoterol has faded (rat tracheal rings [1]) | IC50 (rat tracheal rings [2]; [4]) | IC50 (rat tracheal rings [2]; vehicle-pretreated tissue) | bronchodilator response as measured by FEV1 [3] | maximal relaxation induced by initial formoterol treatment (rat tracheal rings [1]; 3 μM formoterol, FIGS. 4-7)
CC(C)(C)NCC(O)c1ccc(O)c(CO)c1 (centres unmarked) [albuterol] | initial rapid and partial relaxation of the tissue followed by a slower fade of the response to a more contractile state | ineffective in relaxing the tracheal preparation | 411 nM | 239 nM | decrease in the bronchodilator response | 
COc1ccc(CC(C)NCC(O)c2ccc(O)c(NC=O)c2)cc1 (centres unmarked) [formoterol] | initial rapid and partial relaxation of the tissue followed by a slower fade of the response to a more contractile state | ineffective in relaxing the tracheal preparation |  |  |  | approximately 30 % of the initial carbachol response
CC(C)NCC(O)c1ccc(O)c(O)c1 (centres unmarked) [isoproterenol] | initial rapid and partial relaxation of the tissue followed by a slower fade of the response to a more contractile state |  | 71 nM | 33 nM |  | 
